target: T1, endogenous PIP4K2C C-terminally tagged with HiBiT peptide in MOLT-4 cells (Homo sapiens, UniProt Q8TBX8); test: HiBiT PIP4K2C degradation assay in MOLT-4 cells; type: cell-based; conditions: 24 hours, 10-point dose response, top concentration 10 micromolar, read-out: HiBIT-degradation MOLT4 PIP4k2C 24 hours DC50
T1 construct: to C-terminally tag endogenous PIP4K2C with HiBiT peptide; host or cells: MOLT-4 (CRISPR-Cas9 knock-in clone)
T1 sequence (Q8TBX8 1-421): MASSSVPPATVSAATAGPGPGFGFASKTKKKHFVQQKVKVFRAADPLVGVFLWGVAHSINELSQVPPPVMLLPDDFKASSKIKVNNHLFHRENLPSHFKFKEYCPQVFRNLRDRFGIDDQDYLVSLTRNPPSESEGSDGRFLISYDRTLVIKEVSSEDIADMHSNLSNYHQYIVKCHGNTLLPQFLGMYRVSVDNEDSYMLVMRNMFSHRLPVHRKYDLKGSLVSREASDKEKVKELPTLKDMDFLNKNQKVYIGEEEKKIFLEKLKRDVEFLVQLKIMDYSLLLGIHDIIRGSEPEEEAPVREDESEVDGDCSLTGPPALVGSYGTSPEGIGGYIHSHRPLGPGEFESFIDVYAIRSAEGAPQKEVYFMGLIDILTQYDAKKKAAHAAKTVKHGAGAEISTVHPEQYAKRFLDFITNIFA
Summary of the method: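 Cells bearing C-terminal HiBiT knock-in were exposed to a 10-point, 3-fold dilution series (top 10 micromolar, duplicate) for 24 h at 37C, 5% CO2. Remaining tagged protein read by lytic HiBiT luminescence; DC50 from Hill-equation fit.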

DC50 [nM]	Compound
< 500	O=C1CCC(N2C(=O)c3ccc(OCCCCCCCCC(=O)N4CCC5(CC4)CCN(c4cncc(Nc6ncc(Cl)c(-c7cccc(-c8ccccc8)c7)n6)c4)C5=O)cc3C2=O)C(=O)N1 (stereo not drawn) [Compound 72, 5-((9-(2-(5-((4-([1,1′-biphenyl]-3-yl)-5-chloropyrimidin-2-yl)amino)pyridin-3-yl)-1-oxo-2,8-diazaspiro[4.5]decan-8-yl)-9-oxononyl)oxy)-2-(2,6-dioxopiperidin-3-yl)isoindoline-1,3-dione]
< 500	O=C(CCOc1cccc2c1C(=O)N(C1CCC(=O)NC1=O)C2=O)NCCCCCCCCC(=O)Nc1cncc(Nc2ncc(Cl)c(-c3cccc(-c4ccccc4)c3)n2)c1 (stereo not drawn) [Compound 89, N-(5-((4-([1,1′-biphenyl]-3-yl)-5-chloropyrimidin-2-yl)amino)pyridin-3-yl)-9-(3-((2-(2,6-dioxopiperidin-3-yl)-1,3-dioxoisoindolin-4-yl)oxy)propanamido)nonanamide]
< 500	O=C(COc1cccc2c1C(=O)N(C1CCC(=O)NC1=O)C2=O)NCCCCCCCC(=O)Nc1cncc(Nc2ncc(Cl)c(-c3cccc(-c4ccccc4)c3)n2)c1 (stereo not drawn) [Compound 86, N-(5-((4-([1,1′-biphenyl]-3-yl)-5-chloropyrimidin-2-yl)amino)pyridin-3-yl)-8-(2-((2-(2,6-dioxopiperidin-3-yl)-1,3-dioxoisoindolin-4-yl)oxy)acetamido)octanamide]
500 to 1000	O=C(COc1cccc2c1C(=O)N(C1CCC(=O)NC1=O)C2=O)NCCCCCCCCCC(=O)Nc1cncc(Nc2ncc(Cl)c(-c3cccc(-c4ccccc4)c3)n2)c1 (stereo not drawn) [Compound 85, N-(5-((4-([1,1′-biphenyl]-3-yl)-5-chloropyrimidin-2-yl)amino)pyridin-3-yl)-10-(2-((2-(2,6-dioxopiperidin-3-yl)-1,3-dioxoisoindolin-4-yl)oxy)acetamido)decanamide]
500 to 1000	O=C(COc1ccc2c(c1)C(=O)N(C1CCC(=O)NC1=O)C2=O)NCCCCCCCCCC(=O)Nc1cncc(Nc2ncc(Cl)c(-c3cccc(-c4ccccc4)c3)n2)c1 (stereo not drawn) [Compound 59, N-(5-((4-([1,1′-biphenyl]-3-yl)-5-chloropyrimidin-2-yl)amino)pyridin-3-yl)-10-(2-((2-(2,6-dioxopiperidin-3-yl)-1,3-dioxoisoindolin-5-yl)oxy)acetamido)decanamide]
< 500	O=C1CCC(N2C(=O)c3cccc(OCCCN4CCN(CCCCCCCC(=O)Nc5cncc(Nc6ncc(Cl)c(-c7cccc(-c8ccccc8)c7)n6)c5)CC4)c3C2=O)C(=O)N1 (stereo not drawn) [Compound 67, N-(5-((4-([1,1′-biphenyl]-3-yl)-5-chloropyrimidin-2-yl)amino)pyridin-3-yl)-8-(4-(3-((2-(2,6-dioxopiperidin-3-yl)-1,3-dioxoisoindolin-4-yl)oxy)propyl)piperazin-1-yl)octanamide]
< 500	O=C1CCC(N2C(=O)c3cccc(OCCCCCCC(=O)N4CCC5(CC4)CCN(c4cncc(Nc6ncc(Cl)c(-c7cccc(-c8ccccc8)c7)n6)c4)C5=O)c3C2=O)C(=O)N1 (stereo not drawn) [Compound 80, 4-((7-(2-(5-((4-([1,1′-biphenyl]-3-yl)-5-chloropyrimidin-2-yl)amino)pyridin-3-yl)-1-oxo-2,8-diazaspiro[4.5]decan-8-yl)-7-oxoheptyl)oxy)-2-(2,6-dioxopiperidin-3-yl)isoindoline-1,3-dione]

The next lines start with the compound.

Compound	DC50 [nM]
O=C1CCC(N2C(=O)c3ccc(OCCCCCC(=O)N4CCC5(CC4)CCN(c4cncc(Nc6ncc(Cl)c(-c7cccc(-c8ccccc8)c7)n6)c4)C5=O)cc3C2=O)C(=O)N1 (stereo not drawn) [Compound 75, 5-((6-(2-(5-((4-([1,1′-biphenyl]-3-yl)-5-chloropyrimidin-2-yl)amino)pyridin-3-yl)-1-oxo-2,8-diazaspiro[4.5]decan-8-yl)-6-oxohexyl)oxy)-2-(2,6-dioxopiperidin-3-yl)isoindoline-1,3-dione]	< 500
O=C1CCC(N2Cc3cc(OC4CCN(CC(=O)N5CCC6(CC5)CCN(c5cncc(Nc7ncc(Cl)c(-c8cccc(C9CC9)c8)n7)c5)C6=O)CC4)ccc3C2=O)C(=O)N1 (stereo not drawn) [Compound 205, 3-[5-[[1-[2-[2-[5-[[5-chloro-4-(3-cyclopropylphenyl)pyrimidin-2-yl]amino]-3-pyridyl]-1-oxo-2,8-diazaspiro[4.5]decan-8-yl]-2-oxo-ethyl]-4-piperidyl]oxy]-1-oxo-isoindolin-2-yl]piperidine-2,6-dione]	< 500
O=C1CCC(Nc2ccc(C3CCN(CC(=O)N4CCC5(CC4)CCN(c4cncc(Nc6ncc(Cl)c(-c7cccc(N8CCCC8)c7)n6)c4)C5=O)CC3)cc2)C(=O)N1 (stereo not drawn) [Compound 179, 3-((4-(1-(2-(2-(5-((5-chloro-4-(3-(pyrrolidin-1-yl)phenyl)pyrimidin-2-yl)amino)pyridin-3-yl)-1-oxo-2,8-diazaspiro[4.5]decan-8-yl)-2-oxoethyl)piperidin-4-yl)phenyl)amino)piperidine-2,6-dione]	< 500
O=C1CCC(Nc2ccc(C3CCN(CC(=O)N4CCC5(CC4)CCN(c4cncc(Nc6ncc(Cl)c(N7CCOC(c8ccccc8)C7)n6)c4)C5=O)CC3)cc2)C(=O)N1 (stereo not drawn) [Compound 186, 3-[4-[1-[2-[2-[5-[[5-chloro-4-(2-phenylmorpholin-4-yl)pyrimidin-2-yl]amino]-3-pyridyl]-1-oxo-2,8-diazaspiro[4.5]decan-8-yl]-2-oxo-ethyl]-4-piperidyl]anilino]piperidine-2,6-dione]	< 500
O=C1CCC(N2Cc3cc(OCCCCCCCCCC(=O)N4CCC5(CC4)CCN(c4cncc(Nc6ncc(Cl)c(-c7cccc(-c8ccccc8)c7)n6)c4)C5=O)ccc3C2=O)C(=O)N1 (stereo not drawn) [Compound 61, 3-(5-((10-(2-(5-((4-([1,1′-biphenyl]-3-yl)-5-chloropyrimidin-2-yl)amino)pyridin-3-yl)-1-oxo-2,8-diazaspiro[4.5]decan-8-yl)-10-oxodecyl)oxy)-1-oxoisoindolin-2-yl)piperidine-2,6-dione]	< 500
O=C1CCC(N2Cc3cc(OCCCCC(=O)N4CCC5(CC4)CCN(c4cncc(Nc6ncc(Cl)c(-c7cccc(-c8ccccc8)c7)n6)c4)C5=O)ccc3C2=O)C(=O)N1 (stereo not drawn) [Compound 87, 3-(5-((5-(2-(5-((4-([1,1′-biphenyl]-3-yl)-5-chloropyrimidin-2-yl)amino)pyridin-3-yl)-1-oxo-2,8-diazaspiro[4.5]decan-8-yl)-5-oxopentyl)oxy)-1-oxoisoindolin-2-yl)piperidine-2,6-dione]	< 500
O=C1CCC(N2Cc3cc(OC4CCN(C(=O)CN5CCC6(CC5)CCN(c5cncc(Nc7ncc(Cl)c(-c8cccc(C9CC9)c8)n7)c5)C6=O)CC4)ccc3C2=O)C(=O)N1 (stereo not drawn) [Compound 199, 3-(5-((1-(2-(2-(5-((5-chloro-4-(3-cyclopropylphenyl)pyrimidin-2-yl)amino)pyridin-3-yl)-1-oxo-2,8-diazaspiro[4.5]decan-8-yl)acetyl)piperidin-4-yl)oxy)-1-oxoisoindolin-2-yl)piperidine-2,6-dione]	< 500
O=C1CCC(N2Cc3cc(OCCCCCCCN4CCC5(CC4)CCN(c4cncc(Nc6ncc(Cl)c(-c7cccc(-c8ccccc8)c7)n6)c4)C5=O)ccc3C2=O)C(=O)N1 (stereo not drawn) [Compound 54, 3-(5-((7-(2-(5-((4-([1,1′-biphenyl]-3-yl)-5-chloropyrimidin-2-yl)amino)pyridin-3-yl)-1-oxo-2,8-diazaspiro[4.5]decan-8-yl)heptyl)oxy)-1-oxoisoindolin-2-yl)piperidine-2,6-dione]	< 500
